The source of these data is patent US20140023611A1 (priority 2010, published 2014).

One assay addresses T1, rat NaP2b (SLC34A2) (Rattus norvegicus, UniProt Q9JJ09).
T1 construct: host or cells: HEK293
T1 sequence (Q9JJ09 1-695): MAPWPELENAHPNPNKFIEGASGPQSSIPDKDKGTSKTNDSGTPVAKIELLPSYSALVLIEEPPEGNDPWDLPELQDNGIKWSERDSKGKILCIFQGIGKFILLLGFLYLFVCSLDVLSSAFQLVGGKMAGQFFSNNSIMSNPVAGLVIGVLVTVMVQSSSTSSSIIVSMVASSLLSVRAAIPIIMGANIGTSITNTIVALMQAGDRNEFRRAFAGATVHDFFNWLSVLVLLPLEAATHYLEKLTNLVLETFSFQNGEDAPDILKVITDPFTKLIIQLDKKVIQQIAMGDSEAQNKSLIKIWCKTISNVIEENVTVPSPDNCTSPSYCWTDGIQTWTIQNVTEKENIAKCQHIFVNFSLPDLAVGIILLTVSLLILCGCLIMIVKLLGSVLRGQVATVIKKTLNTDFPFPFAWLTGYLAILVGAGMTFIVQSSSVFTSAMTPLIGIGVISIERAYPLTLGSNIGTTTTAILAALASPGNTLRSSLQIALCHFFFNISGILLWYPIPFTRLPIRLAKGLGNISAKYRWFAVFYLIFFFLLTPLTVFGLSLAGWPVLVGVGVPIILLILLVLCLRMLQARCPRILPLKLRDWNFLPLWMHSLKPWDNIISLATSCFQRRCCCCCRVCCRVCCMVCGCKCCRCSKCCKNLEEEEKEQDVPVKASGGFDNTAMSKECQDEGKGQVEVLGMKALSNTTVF
In words: Inhibition of NaP2b-mediated Pi (33P) uptake in transfected HEK293 cells, rat NaP2b. The format is cell-based. As to conditions: 33P Pi uptake, 0.1 mM phosphate, value given as pIC50 range. A digest of the protocol:
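HEK293 cells were transiently transfected with NaP2b cDNA using Lipofectamine and grown near confluence. Compounds were tested at twelve concentrations from 0.1 nM to 30 uM in duplicate, and 33P-phosphate uptake was counted by scintillation after lysis. Results are expressed as pIC50.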

For another assay, the target named is T2, human NaP2b (SLC34A2) (Homo sapiens, UniProt O95436).
T2 construct: host or cells: HEK293
T2 sequence (O95436 1-690): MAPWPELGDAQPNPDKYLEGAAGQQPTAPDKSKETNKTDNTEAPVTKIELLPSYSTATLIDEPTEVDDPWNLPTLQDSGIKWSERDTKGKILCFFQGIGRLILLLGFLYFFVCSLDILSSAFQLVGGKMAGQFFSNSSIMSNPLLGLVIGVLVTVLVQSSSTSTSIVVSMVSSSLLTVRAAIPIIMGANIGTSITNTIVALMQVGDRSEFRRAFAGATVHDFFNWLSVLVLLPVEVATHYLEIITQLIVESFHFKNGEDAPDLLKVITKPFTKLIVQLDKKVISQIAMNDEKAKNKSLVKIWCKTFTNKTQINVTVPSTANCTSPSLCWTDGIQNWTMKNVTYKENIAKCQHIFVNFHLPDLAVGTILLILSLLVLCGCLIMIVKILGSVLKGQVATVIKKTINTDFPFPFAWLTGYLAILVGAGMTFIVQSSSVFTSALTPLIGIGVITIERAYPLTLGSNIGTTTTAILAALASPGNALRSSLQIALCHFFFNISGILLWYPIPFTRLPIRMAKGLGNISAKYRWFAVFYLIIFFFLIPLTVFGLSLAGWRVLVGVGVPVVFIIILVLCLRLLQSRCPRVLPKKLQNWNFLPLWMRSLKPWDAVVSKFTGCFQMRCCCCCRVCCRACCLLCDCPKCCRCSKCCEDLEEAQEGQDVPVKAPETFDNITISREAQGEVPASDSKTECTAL
In words: Inhibition of NaP2b-mediated Pi (33P) uptake in transfected HEK293 cells, human NaP2b. The format is cell-based. As to conditions: read-out: pIC50 range for human NaP2b (converted). On the procedure: HEK293 cells were obtained from the American Type Culture collection and propagated per their instructions. Expression clones for rat and human NaP2b (SLC34A2) were obtained from Open Biosystems (Catalog numbers MRN1768-9510282, and MHS1010-99823026, respectively). The sequence of the human protein was mutated to insert a threonine after residue 37, and to introduce a N39D mutation.
The rate of phosphate (Pi) uptake into HEK293 cells was measured using a modification of the method described by Mohrmann et al. (Mohrmann, I., Mohrmann, M., Biber, J., and Murer, H. (1986) Am. J. Phys. 250(3 Pt 1):G323-30.) Transfected HEK293 cells were treated with a pharmacological agent to minimize endogenous PiT-mediated phosphate transport activity, such that the only remaining sodium-dependent phosphate transport activity is that which was bestowed by introduction of the NaP2b genes.
Cells were seeded into 96-well plates at 25,000 cells/well and cultured overnight. Lipofectamine 2000 (Invitrogen) was used to introduce the NaP2b cDNA, and the cells were allowed to approach confluence during a second overnight incubation. […] Cells were then overlayed with either choline uptake buffer or sodium uptake buffer (14 mM Tris, 137 mM sodium chloride, 5.4 mM KCl, 2.8 mM CaCl2, 1.2 mM MgSO4, 100 uM KH2PO4, PiT-silencing agent, 1 mg/mL Bovine Serum Albumin, pH 7.4) containing 6-9 uCi/mL ^33P orthophosphoric acid (Perkin Elmer) and test compound. Each compound was tested at twelve concentrations ranging from 0.1 nM to 30 uM. Assays were run in duplicate.
After incubation for 3-30 minutes at room temperature, assay mixtures were removed, and the cells were washed twice with ice cold stop solution (137 mM sodium chloride, 14 mM Tris, pH 7.4). Cells were lysed by addition of 20 μL 0.1% Tween 80 followed by 100 μL scintillation fluid, and counted using a TopCount (Perkin Elmer).
pIC50 (the negative log of the IC50) values of the test compounds were calculated using GraphPad Prism.

Each structure is given as a SMILES string. pIC50: −log10 of the molar value.

For `CN(CCOCCOCCOCCC(=O)N1CCN(CCOCCO)CC1)C(=O)Cc1cccc(SCc2cccc(C(=O)Nc3ccc(N4CCCCC4)cc3-c3cc(C(=O)N[C@H]4CCCc5ccccc54)ccn3)c2)c1` [Example 236, (S)-2-(2-(3-((3-(15-(4-(2-(2-hydroxyethoxy)ethyl)piperazin-1-yl)-3-methyl-21-2.15-dioxo-6,9,12-trioxa-3-azapentadecyl)phenylthio)methyl)benzamido)-5-(piperidin-1-yl)phenyl)-N-(1,2,3,4-tetrahydronaphthalen-1-yl)isonicotinamide], the negative-log IC50 (pIC50) against rat NaP2b (SLC34A2) is more than 6.00. Also, the IC50 at human NaP2b (SLC34A2) is less than 1000 nM.
For `CCN(CC)c1ccc(NC(=O)c2cccc(C(=O)N(C)CCN(C)CCOCCOCCOCCNS(C)(=O)=O)c2)c(-c2cc(C(=O)N[C@H]3CCCc4ccccc43)ccn2)c1` [Example 226, 3-N-[4-(diethylamino)-2-(4-{[(1S)-1,2,3,4-tetrahydronaphthalen-1-yl]carbamoyl}pyridin-2-yl)phenyl]-1-N-(1-methanesulfonamido-12-methyl-3,6,9-trioxa-12-azatetradecan-14-yl)-1-N-methylbenzene-1,3-dicarboxamide] the same measures were more than 6.00 and 1000 to 7940 nM.
For `CCN(CC)c1ccc(NC(=O)c2cccc(C(=O)N(C)CCN3CCN(C(=O)COCCOCCOCCOCCOCCOCCOCCOC)CC3)c2)c(-c2cc(C(=O)N[C@H]3CCCc4ccccc43)ccn2)c1` [Example 227, (S)—N1-(2-(4-2,5,8,11,14,17,20,23-octaoxapentacosanepiperazin-1-yl)ethyl)-N3-(4-(diethylamino)-2-(4-(1,2,3,4-tetrahydronaphthalen-1-ylcarbamoyl)pyridin-2-yl)phenyl)-N1-methylisophthalamide] the same measures were 5.10 to 6.00 and 1000 to 7940 nM.
The corresponding values for `CC(C)(C)OC(=O)CCOCCOCCOCCOCCCc1cccc(C(=O)Nc2ccc(OC3CCC3)cc2-c2cc(C(=O)N[C@H]3CCCc4ccccc43)ccn2)c1` [Example 284, (S)-tert-butyl 16-(3-((4-cyclobutoxy-2-(4-((1,2,3,4-tetrahydronaphthalen-1-yl)carbamoyl)pyridin-2-yl)phenyl)carbamoyl)phenyl)-4,7,10,13-tetraoxahexadecan-1-oate] are 5.10 to 6.00 and 1000 to 7940 nM.
In the case of `CN(CCN1CCN(C(=O)N(C)CCOCCOCCOCCC(=O)OC(C)(C)C)CC1)C(=O)c1cccc(C(=O)Nc2ccc(N3CCCCC3)cc2-c2cc(C(=O)N[C@H]3CCCc4ccccc43)ccn2)c1` [Example 229, tert-butyl 3-[2-(2-{2-[methyl(4-{2-[N-methyl-1-(3-{[4-(piperidin-1-yl)-2-(4-{[(1S)-1,2,3,4-tetrahydronaphthalen-1-yl]carbamoyl}pyridin-2-yl)phenyl]carbamoyl}phenyl)formamido]ethyl}piperazin-1-yl)carbonylamino]ethoxy}ethoxy)ethoxy]propanoate], the pIC50 at rat NaP2b (SLC34A2) is more than 6.00. The IC50 at human NaP2b (SLC34A2) is less than 1000 nM.
The corresponding values for `CCN(CC)c1ccc(NC(=O)c2cccc(CCCOCCOCCOCCOCCC(=O)O)c2)c(-c2cc(C(=O)N[C@H]3CCCc4ccccc43)ccn2)c1` [Example 302, (S)-16-(3-(4-(diethylamino)-2-(4-(1,2,3,4-tetrahydronaphthalen-1-ylcarbamoyl)pyridin-2-yl)phenylcarbamoyl)phenyl)-4,7,10,13-tetraoxahexadecan-1-oic acid] are more than 6.00 and less than 1000 nM.
For `CN(CCN1CCOC[C@H]1C(=O)N(C)CCOCCOCCOCCC(=O)O)C(=O)c1cccc(C(=O)Nc2ccc(N3CCCCC3)cc2-c2cc(C(=O)N[C@H]3CCCc4ccccc43)ccn2)c1` [Example 243, 2-methyl-1-((S)-4-(2-(N-methyl-3-(4-(piperidin-1-yl)-2-(4-((S)-1,2,3,4-tetrahydronaphthalen-1-ylcarbamoyl)pyridin-2-yl)phenylcarbamoyl)benzamido)ethyl)morpholin-3-yl)-1-oxo-5,8,11-trioxa-2-azatetradecan-14-oic acid] the same measures were 4.50 to 5.00 and 10000 to 31600 nM.
For `CN(CCN1CCC[C@H]1C(=O)NCCOCCOCCOCCC(=O)OC(C)(C)C)C(=O)c1cccc(C(=O)Nc2ccc(N3CCCCC3)cc2-c2cc(C(=O)N[C@H]3CCCc4ccccc43)ccn2)c1` [Example 192, tert-butyl 1-((S)-1-(2-(N-methyl-3-((4-(piperidin-1-yl)-2-(4-(((S)-1,2,3,4-tetrahydronaphthalen-1-yl)carbamoyl)pyridin-2-yl)phenyl)carbamoyl)benzamido)ethyl)pyrrolidin-2-yl)-1-oxo-5,8,11-trioxa-2-azatetradecan-14-oate] the same measures were more than 6.00 and less than 1000 nM.
For `CCN(CC)c1ccc(NC(=O)c2cccc(CCCOCCOCCOCCOCCC(=O)N(C)CCOCCOCCOCCOCCOCCOCCOC)c2)c(-c2cc(C(=O)N[C@H]3CCCc4ccccc43)ccn2)c1` [Example 280], the pIC50 against rat NaP2b (SLC34A2) was more than 6.00. For the same compound, the IC50 on human NaP2b (SLC34A2) was less than 1000 nM.
The corresponding values for `CCN(CC)c1ccc(NC(=O)c2cccc(C(=O)N(C)CCN3CCN(C(=O)N(C)CCOCCOCCOCCC(=O)OC(C)(C)C)CC3)c2)c(-c2cc(C(=O)N[C@H]3CCCc4ccccc43)ccn2)c1` [Example 212, tert-butyl 3-[2-(2-{2-[(4-{2-[1-(3-{[4-(diethylamino)-2-(4-{[(1S)-1,2,3,4-tetrahydronaphthalen-1-yl]carbamoyl}pyridin-2-yl)phenyl]carbamoyl}phenyl)-N-methylformamido]ethyl}piperazin-1-yl)carbonyl(methyl)amino]ethoxy}ethoxy)ethoxy]propanoate] are more than 6.00 and less than 1000 nM.
For `CCN(CC)c1ccc(NC(=O)c2cccc(CCCOCCOCCOCCOCCOCC(CO)(CO)CO)c2)c(-c2cc(C(=O)NCc3cccc(C(F)(F)F)c3)ccn2)c1` [Example 332, N-(3-(trifluoromethyl)benzyl)-2-(5-(diethylamino)-2-(3-(3-(2-(2-(2-(2-(3-hydroxy-2,2-bis(hydroxymethyl)propoxy)ethoxy)ethoxy)ethoxy)ethoxy)propyl)benzamido)phenyl)isonicotinamide] the same measures were more than 6.00 and less than 1000 nM.
The corresponding values for `O=C(NCc1cccc(C(F)(F)F)c1)c1ccnc(-c2cc(N3CCCCC3)ccc2NC(=O)c2cccc(CCCOCCOCCOCCOCCC(=O)N(CCO)CCO)c2)c1` [Example 277] are 5.10 to 6.00 and 1000 to 7940 nM.
